Patent US20140350114A1, “COMPOSITIONS COMPRISING CYCLOHEXYLAMINES AND AMINOADAMANTANES” (MERZ PHARMA GmbH & CO. KGaA, priority 2003, published 2014)

Experiments:
[1] = antimicrobial activity in preserving liquid aqueous formulations (general observation); conditions: at concentrations useful for pharmaceutical formulation purposes
[2] = test system: Candida albicans, Aspergillus niger, Escherichia coli, Pseudomonas aeruginosa, Staphylococcus aureus; experiment: Antimicrobial Effectiveness Testing USP <51>, overall conclusion; type: cell-based; conditions: all inoculums
Procedure: The testing was performed in accordance with the USP <51> using the culture conditions for inoculum specified in the test conditions. The Antimicrobial Effectiveness Testing (referred to later in the text as APE or antimicrobial effectiveness) is performed as described in USP 26, The United States Pharmacopeial Convention, Inc. (Rockville, Md., 2002; pp. 2002-2004). The test is conducted in five sterile, capped bacteriological containers into which a sufficient volume of product has been transferred. Test organisms include Candida albicans (ATCC No. 10231), Aspergillus niger (ATCC No. 16404), Escherichia coli (ATCC No. 8739), Pseudomonas aeruginosa (ATCC No. 9027), Staphylococcus aureus (ATCC No. 6538). Each container is inoculated with one of the prepared and standardized inoculum, and mix. […] The number of cfu present in each test preparation is determined by the plate-count procedure, specified in the monograph, for the applicable intervals. Using the calculated concentrations of cfu per mL present at the start of the test, the change in log10 values of the concentration of cfu per mL for each microorganism is calculated at the applicable test intervals, and the changes in terms of log reductions is expressed. Results are evaluated in accordance with the Product Category for Oral Products made with aqueous bases or vehicle.

Compound	antimicrobial activity [1]	antimicrobial / preservative effectiveness against USP <51> criteria (conclusion) [2]
CN(C)CCOCC(=O)NC12CC3CC(CC(C3)C1)C2 [tromantadine, 1-(dimethylaminoethoxyacetamido) adamantane]	significant antimicrobial activity	–
CC1(C)CC(C)(C)CC(C)(N)C1 [neramexane, 1-amino-1,3,3,5,5-pentamethylcyclohexane]	significant antimicrobial activity	sufficient preservative efficacy
CC12CC3CC(C)(C1)CC(N)(C3)C2 [memantine, 1-amino-3,5-dimethyl adamantane]	significant antimicrobial activity	–
